# According to patent publication US20130184227A1, “Cytochrome P450 2C9 Inhibitors” (priority 2004, published 2013):
# Where two headings read alike, the source gives them in different places.
# Assays:
# [1] = rats; cited from earlier work
# [2] = tested on: CYP2C9; conditions: for % inhibition of CYP2C9 activity: tolbutamide 1 mM, rat liver microsomes; for 4′-hydroxytolbutamide: Sprague-Dawley, rat, 7.5 min, pH 7.4
# [3] = tested on: CYP2C9; experiment: in vitro; conditions: Sprague-Dawley, rat, microsomes
# [4] = In vivo study in rodents: fluvastatin pharmacokinetics with or without tamarixetin; conditions: tamarixetin pretreatment versus control, rats
# Description: (§1) The test system used is the Sprague-Dawley rat.
# (§2) After overnight fast, rats are anesthetized and prepared with a jugular catheter. […] Twelve blood samples (including pre dose blank) are collected over 24 hours—0, 10, 20, 40, 60, 120, 240, 360, 480, 720, 1080 and 1440 minutes. Each sample (0.5 to 0.6 mL blood) is collected into microfuge tubes containing 20 uL of 10 IU heparin (anti-coagulant). After separation, plasma samples are protected from light and stored at −80° C. freezer.
# [5] = biological target: CYP2C9 (Homo sapiens, UniProt P11712); conditions: cited from earlier work
# [6] = in vivo; conditions: Sprague-Dawley, rat, po, 1.5 mg/kg; for Cmax: Cmax of fluvastatin
# Description: as §1, §2
# [7] = pH 7.4, % inhibition of CYP2C9 activity
# [8] = pH 7.4, % inhibition of tolbutamide metabolism in microsomes
# [9] = pH 7.4, % inhibition of CYP2C9 activity, test article 1 μM, tolbutamide 1 mM, rat liver microsomes
# [10] = pH 7.4, % inhibition of CYP2C9 activity, test article 10 μM, tolbutamide 1 mM, rat liver microsomes
# [11] = pH 7.4, % inhibition of CYP2C9 activity, test article 100 μM, tolbutamide 1 mM, rat liver microsomes
# CYP2C9 (Homo sapiens, UniProt P11712), sequence (P11712 whole entry): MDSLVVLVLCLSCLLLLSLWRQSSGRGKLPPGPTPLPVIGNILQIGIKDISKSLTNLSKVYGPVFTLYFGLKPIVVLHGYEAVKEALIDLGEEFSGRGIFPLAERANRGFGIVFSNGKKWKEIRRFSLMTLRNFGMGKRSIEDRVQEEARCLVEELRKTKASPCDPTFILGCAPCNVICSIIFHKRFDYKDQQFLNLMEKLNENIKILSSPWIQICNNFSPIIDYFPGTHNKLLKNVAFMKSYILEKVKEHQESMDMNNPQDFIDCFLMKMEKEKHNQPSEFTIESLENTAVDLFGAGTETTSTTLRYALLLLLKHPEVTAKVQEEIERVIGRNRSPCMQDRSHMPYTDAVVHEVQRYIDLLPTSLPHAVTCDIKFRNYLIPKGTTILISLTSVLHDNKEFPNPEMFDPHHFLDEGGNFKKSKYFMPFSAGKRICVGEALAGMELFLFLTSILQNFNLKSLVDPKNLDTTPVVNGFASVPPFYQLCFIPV
compound,measurement,setting,value
CCCCNC(=O)NS(=O)(=O)c1ccc(C)cc1 [tolbutamide],oral bioavailability,[1],90%
O=C1C[C@@H](c2ccc(O)cc2)Oc2cc(O)cc(O)c21 [Narigenin],% inhibition of CYP2C9 activity,[2]; test article 1 μM,5.20%
same,% inhibition of CYP2C9 activity,[2]; test article 10 μM,49.98%
same,% inhibition of CYP2C9 activity,[2]; test article 100 μM,79.70%
COc1ccc(-c2oc3cc(O)cc(O)c3c(=O)c2O)cc1O [Tamarixetin],"inhibition at 7.5 min, 1 μM","[3]; pH 7.4, % inhibition",42%
same,"inhibition at 7.5 min, 10 μM","[3]; pH 7.4, % inhibition",88.2%
same,"inhibition at 7.5 min, 100 μM","[3]; pH 7.4, % inhibition",90.2%
same,"inhibition at 7.5 min, 1 μM",[3]; [7],42%
same,"inhibition at 7.5 min, 10 μM",[3]; [7],88.1%
same,"inhibition at 7.5 min, 100 μM",[3]; [7],90.2%
same,"inhibition at 7.5 min, 1 μM",[3]; [8],42%
same,"inhibition at 7.5 min, 10 μM",[3]; [8],88.1%
same,"inhibition at 7.5 min, 100 μM",[3]; [8],90.2%
same,4′-hydroxytolbutamide,[2]; 1 μM,213.5696 ± 24.4309 ng
same,4′-hydroxytolbutamide,[2]; 10 μM,43.1 ± 2.5372 ng
same,4′-hydroxytolbutamide,[2]; 100 μM,35.49 ± 1.5825 ng
same,change of terminal elimination rate constant (k) of fluvastatin,[4],no apparent changes
"C=C(C)C1CC=C(C)CC1 (single isomer, unassigned; (+)) [(+)-Limonene]",% inhibition of CYP2C9 activity,[2]; test article 1 μM,14.12%
same,% inhibition of CYP2C9 activity,[2]; test article 10 μM,10.55%
same,% inhibition of CYP2C9 activity,[2]; test article 100 μM,22.29%
O=c1cc(-c2ccc(O)c(O)c2)oc2cc(O)c([C@@H]3O[C@H](CO)[C@@H](O)[C@H](O)[C@H]3O)c(O)c12 [Homoorientin],% inhibition of CYP2C9 activity,[2]; test article 1 μM,3.37%
same,% inhibition of CYP2C9 activity,[2]; test article 10 μM,2.45%
same,% inhibition of CYP2C9 activity,[2]; test article 100 μM,20.19%
O=c1c(-c2ccc(O)cc2)coc2cc(O[C@@H]3O[C@H](CO)[C@@H](O)[C@H](O)[C@H]3O)ccc12 [Daidzin],"inhibition at 7.5 min, 1 μM",[3]; pH 7.4,0.95%
same,"inhibition at 7.5 min, 10 μM",[3]; pH 7.4,-2.46%
same,"inhibition at 7.5 min, 25 μM",[3]; pH 7.4,-1.16%
same,"inhibition at 7.5 min, 100 μM",[3]; pH 7.4,-1.33%
COc1cc(-c2oc3cc(O)cc(O)c3c(=O)c2O)ccc1O [Isorhamnetin],"inhibition at 7.5 min, 1 μM",[3]; pH 7.4,19.6%
same,"inhibition at 7.5 min, 10 μM",[3]; pH 7.4,61.5%
same,"inhibition at 7.5 min, 75 μM",[3]; pH 7.4,65.7%
C=C[C@H]1[C@H](O[C@@H]2O[C@H](CO)[C@@H](O)[C@H](O)[C@H]2O)OC=C2C(=O)OCC[C@]21O [Swertiamarin],"inhibition at 7.5 min, 1 μM",[3]; [7],16.3%
same,"inhibition at 7.5 min, 10 μM",[3]; [7],16.6%
same,"inhibition at 7.5 min, 100 μM",[3]; [7],18.4%
COc1ccc([C@@H]2CC(=O)c3c(O)cc(O)cc3O2)cc1O [Hesperetin],"inhibition at 7.5 min, 1 μM",[3]; [7],-3.58%
same,"inhibition at 7.5 min, 10 μM",[3]; [7],29.1%
O=C(O)c1cc(O)c(O)c(O)c1 [gallic acid],"inhibition at 7.5 min, 1 μM",[3]; [7],-3.05%
same,"inhibition at 7.5 min, 10 μM",[3]; [7],-2.47%
same,"inhibition at 7.5 min, 100 μM",[3]; [7],-0.97%
O=C1C[C@@H](c2ccc(O[C@@H]3O[C@H](CO)[C@@H](O)[C@H](O)[C@H]3O)cc2)Oc2cc(O)ccc21 [Liquiritin],"inhibition at 7.5 min, 1 μM",[3]; [7],18.1%
same,"inhibition at 7.5 min, 10 μM",[3]; [7],18.4%
same,"inhibition at 7.5 min, 100 μM",[3]; [7],24.8%
O=c1c(O)c(-c2ccc(O)cc2O)oc2cc(O)cc(O)c12 [Morin],"inhibition at 7.5 min, 1 μM",[3]; [7],14.3%
same,"inhibition at 7.5 min, 10 μM",[3]; [7],11.6%
same,"inhibition at 7.5 min, 100 μM",[3]; [7],51%
O=C(O)[C@H]1O[C@@H](Oc2cc3oc(-c4ccccc4)cc(=O)c3c(O)c2O)[C@H](O)[C@@H](O)[C@@H]1O [baicalin],"inhibition at 7.5 min, 2.5 μM",[3]; [7],-5.36%
same,"inhibition at 7.5 min, 25 μM",[3]; [7],7.77%
CC1(C)[C@@H](O[C@H]2O[C@H](C(=O)O)[C@@H](O)[C@H](O)[C@H]2O[C@@H]2O[C@H](C(=O)O)[C@@H](O)[C@H](O)[C@H]2O)CC[C@]2(C)[C@H]3C(=O)C=C4[C@@H]5C[C@@](C)(C(=O)O)CC[C@]5(C)CC[C@@]4(C)[C@]3(C)CC[C@@H]12 [glycyrrhizin],"inhibition at 7.5 min, 1 μM",[3]; [7],5.14%
same,"inhibition at 7.5 min, 10 μM",[3]; [7],2.23%
same,"inhibition at 7.5 min, 100 μM",[3]; [7],4.87%
O=c1cc(-c2ccccc2)oc2ccc3ccccc3c12 [β-Naphthoflavone],% inhibition of CYP2C9 activity,[2]; test article 1 μM,2.35%
same,% inhibition of CYP2C9 activity,[2]; test article 10 μM,4.64%
CC(=O)OCCCc1ccccc1 [3-Phenylpropyl Acetate],"inhibition at 7.5 min, 1 μM",[3]; [7],36.6%
same,"inhibition at 7.5 min, 100 μM",[3]; [7],42.6%
C[C@@H]1O[C@@H](Oc2c(-c3ccc(O)c(O)c3)oc3cc(O)cc(O)c3c2=O)[C@H](O)[C@H](O)[C@H]1O [Quercitrin],"inhibition at 7.5 min, 1 μM",[3]; pH 7.4,24.2%
same,"inhibition at 7.5 min, 10 μM",[3]; pH 7.4,21.1%
same,"inhibition at 7.5 min, 100 μM",[3]; pH 7.4,13.5%
COc1ccc([C@@H]2CC(=O)c3c(O)cc(O[C@@H]4O[C@H](CO[C@@H]5O[C@@H](C)[C@H](O)[C@@H](O)[C@H]5O)[C@@H](O)[C@H](O)[C@H]4O)cc3O2)cc1O [Hesperidin],% inhibition of CYP2C9 activity,[2]; test article 1 μM,2.57%
same,% inhibition of CYP2C9 activity,[2]; test article 10 μM,6.68%
C[C@@H]1O[C@@H](OC[C@H]2O[C@@H](Oc3c(-c4ccc(O)c(O)c4)oc4cc(O)cc(O)c4c3=O)[C@H](O)[C@@H](O)[C@@H]2O)[C@H](O)[C@H](O)[C@H]1O [Rutin],"inhibition at 7.5 min, 1 μM",[3]; [7],-2.59%
same,"inhibition at 7.5 min, 10 μM",[3]; [7],-14%
same,"inhibition at 7.5 min, 100 μM",[3]; [7],-6.46%
C[C@@]12C[C@@]3(O)O[C@@H](O1)[C@]1(COC(=O)c4ccccc4)[C@H]3C[C@@]12O[C@@H]1O[C@H](CO)[C@@H](O)[C@H](O)[C@H]1O [paeoniflorin],"inhibition at 7.5 min, 1 μM",[3]; [7],10.1%
same,"inhibition at 7.5 min, 10 μM",[3]; [7],0.7%
same,"inhibition at 7.5 min, 100 μM",[3]; [7],-1.77%
O=c1c(O)c(-c2ccc(O)cc2)oc2cc(O)cc(O)c12 [kaempferol],"inhibition at 7.5 min, 1 μM",[3]; [7],-22.3%
same,"inhibition at 7.5 min, 10 μM",[3]; [7],38.3%
O=c1ccc2ccc(O)cc2o1 [Umbelliferone],"inhibition at 7.5 min, 1 μM",[3]; [7],-7.17%
same,"inhibition at 7.5 min, 10 μM",[3]; [7],-6.64%
same,"inhibition at 7.5 min, 100 μM",[3]; [7],-2.02%
O=c1c(O)c(-c2ccc(O)c(O)c2)oc2cc(O)cc(O)c12 [quercetin],"inhibition at 7.5 min, 1 μM",[3]; pH 7.4,15.1%
same,"inhibition at 7.5 min, 10 μM",[3]; pH 7.4,44.8%
same,"inhibition at 7.5 min, 100 μM",[3]; pH 7.4,91.9%
CC(C)n1c(/C=C/C(O)CC(O)CC(=O)O)c(-c2ccc(F)cc2)c2ccccc21 (stereo not shown) [fluvastatin],share of metabolism for which liver CYP2C9 is responsible,[5],approximately 80%
same,AUC(0-inf),[6],950 ± 133 ng·h/mL
same,AUC(0-t),[6],711 ± 81.5 ng·h/mL
same,MRT inf,[6],15.8 ± 1.56 h
same,Tmax,[6],4.7 ± 1.7 h
same,Cmax,[6],63.1 ± 10.4 ng/mL
same,Cmax,[6]; control group,63.1 ± 10.4 ng/mL
O=c1c(-c2ccc(O)cc2)coc2c([C@@H]3O[C@H](CO)[C@@H](O)[C@H](O)[C@H]3O)c(O)ccc12 [Puerarin],"inhibition at 7.5 min, 1 μM",[3]; [7],38.1%
same,"inhibition at 7.5 min, 10 μM",[3]; [7],39%
same,"inhibition at 7.5 min, 100 μM",[3]; [7],33.3%
O=C(O)/C=C/c1ccccc1 [trans-cinnamic acid],"inhibition at 7.5 min, 1 μM",[3]; [7],26.9%
same,"inhibition at 7.5 min, 10 μM",[3]; [7],15.8%
same,"inhibition at 7.5 min, 100 μM",[3]; [7],26.1%
O=C1c2c(O)cc(O)cc2O[C@H](c2ccc(O)c(O)c2)[C@H]1O [(+)-Taxifolin],"inhibition at 7.5 min, 1 μM",[3]; [9],-1.29%
same,"inhibition at 7.5 min, 10 μM",[3]; [10],31.2%
same,"inhibition at 7.5 min, 100 μM",[3]; [11],50.5%
O=c1c(-c2ccc(O)cc2)coc2cc(O)cc(O)c12 [Genistein],"inhibition at 7.5 min, 1 μM",[3]; [9],49.6%
same,"inhibition at 7.5 min, 10 μM",[3]; [10],67.7%
same,"inhibition at 7.5 min, 100 μM",[3]; [11],82.7%
same,"inhibition at 7.5 min, 1 μM","[3]; pH 7.4, % inhibition of tolbutamide metabolism in microsomes, 1 μM, reaction time 7.5 minute, n = 3",49.6%
same,"inhibition at 7.5 min, 100 μM","[3]; pH 7.4, % inhibition of tolbutamide metabolism in microsomes, 100 μM, reaction time 7.5 minute, n = 3",82.7%
same,"inhibition at 7.5 min, 10 μM","[3]; pH 7.4, % inhibition of tolbutamide metabolism in microsomes, 10 Mm, reaction time 7.5 minute, n = 3",67.7%
same,"inhibition at 7.5 min, 1 μM","[3]; pH 7.4, % inhibition, 1 μM (low concentration)",49.6%
same,"inhibition at 7.5 min, 10 μM","[3]; pH 7.4, % inhibition, 10 μM (mid concentration)",67.7%
same,"inhibition at 7.5 min, 100 μM","[3]; pH 7.4, % inhibition, 100 μM (high concentration)",82.7%
